Test results published in patent US20230346772A1, “COMBINATION TREATMENTS FOR WALDENSTROM'S MACROGLOBULINEMIA” (X4 Pharmaceuticals, Inc., priority 2019, published 2023).
Read-outs that look alike come from different tables or passages of the source. Blank lines part the entries; values can stand above or below the compound they belong to.

What was measured:
[1] = Solubility of X4P-001; type: physicochemical
[2] = Terminal half-life of X4P-001; settings: in vivo
[3] = Phase 1/2 study in renal cell carcinoma, dose-limiting toxicities; type: in vivo, human
Experimental: Doses of mavorixafor up to 600 mg daily have been tested in other clinical trials. During a Phase 1/2 study in renal cell carcinoma, a 3-patient cohort received monotherapy with 600 mg mavorixafor with 2 DLTs reported. On review, one of these (hyperglycemia) occurred in a patient with undiagnosed diabetes mellitus and the other (acute kidney injury [AKI]) occurred in a patient with pre-existing renal dysfunction and other complicating factors. Six patients received the 600 mg mavorixafor dose together with axitinib. […] Patients with a high hemoglobin A1c (HbA1c) level or with renal dysfunction are excluded from this study for safety reasons.

[4] = tested on: neutrophil; experiment: Pharmacodynamic response of neutrophil changes (ANC); parameters: species or system human; settings: in vivo
Text: This characteristic of mavorixafor, allows for intrapatient patient dose escalation and since the steady-state ANC response is achieved rapidly as doses are escalated, the 28-day treatment duration cycle is intended to ensure that steady-state changes in ANC counts are achieved at each dose level, thereby avoiding any potential carry-over effects of previous doses. In addition, any DLT events are attributed to the current dose regardless of duration, making it unlikely that an unsafe dose is selected based on the algorithm.

[5] = target: CXCR4 (Homo sapiens, UniProt P61073)
Experimental: Dose selection for the planned Phase 1b study is based on available safety data and PD of CXCR4 inhibition. […] An intrapatient dose escalation scheme is used in this study: patients will have a dose escalation in 200-mg increments to a maximum dose of 600 mg QD with the objective of achieving maximum white blood cell (WBC) mobilization.

[6] = tested on: Waldenstrom's Macroglobulinemia; settings: previously treated WM patients, cited from earlier work
[7] = tested on: Waldenstrom's Macroglobulinemia; settings: treatment-naive WM patients, cited from earlier work
[8] = tested on: Waldenstrom's Macroglobulinemia; settings: cited from earlier work
[9] = Food effect on absorption
[10] = tested on: WBC count; settings: similar across neutrophils, monocytes, lymphocytes including B cells; cited from earlier work
[11] = tested on: CD19 B cells; settings: patients with WHIM who had mutations in CXCR4; cited from earlier work

Chain of CXCR4 (P61073 whole entry): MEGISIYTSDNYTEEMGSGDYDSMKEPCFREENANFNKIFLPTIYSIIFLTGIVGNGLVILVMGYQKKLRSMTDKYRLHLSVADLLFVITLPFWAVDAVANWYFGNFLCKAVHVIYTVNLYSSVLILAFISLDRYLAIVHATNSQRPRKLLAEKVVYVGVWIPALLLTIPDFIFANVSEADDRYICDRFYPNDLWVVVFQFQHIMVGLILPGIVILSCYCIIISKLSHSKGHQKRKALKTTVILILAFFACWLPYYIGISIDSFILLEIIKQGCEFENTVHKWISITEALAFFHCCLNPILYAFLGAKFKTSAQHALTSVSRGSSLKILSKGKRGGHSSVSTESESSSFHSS

solubility ([1]; aqueous buffer, pH range 3.0 to 8.0, read-out: Solubility): > 100 mg/mL | solubility ([1]; in water): only slightly soluble | half-life [2]: 12 to 24 h | pharmacological activity of the dose ([5]; 200 mg starting dose, prior clinical trials): pharmacologically active
SMILES: NCCCCN(Cc1nc2ccccc2[nH]1)[C@H]1CCCc2cccnc21 [X4P-001]
DLTs reported ([3]; 600 mg monotherapy, 3-patient cohort): 2 | patients reporting DLTs ([3]; 600 mg together with axitinib, six patients): Two of these patients reported DLTs | pharmacodynamic response of neutrophil changes [4]: rapid, occurring within hours to days | tolerability of the dose ([5]; human, in vivo): well-tolerated

absorption when taken with food [9]: increased
SMILES: C=CC(=O)N1CCC[C@@H](n2nc(-c3ccc(Oc4ccccc4)cc3)c3c(N)ncnc32)C1 [ibrutinib, 1-[(3R)-3-[4-amino-3-(4-phenoxyphenyl)-1Hpyrazolo[3,4-d]pyrimidin-1-yl]-1-piperidinyl]-2-propen-1-one]
MR (major response) ([6]; All Patients): 78% | VGPR (very good partial response) ([6]; All Patients): 29% | MR (major response) ([6]; MYD88^L265P CXCR4^WHIM): 67% | VGPR (very good partial response) ([6]; MYD88^L265P CXCR4^WHIM): 10% | MR (major response) ([6]; MYD88^L265P CXCR4^WT): 97% | VGPR (very good partial response) ([6]; MYD88^L265P CXCR4^WT): 44% | MR (major response) ([7]; All Patients): 83% | VGPR (very good partial response) ([7]; All Patients): 20% | MR (major response) ([7]; MYD88^L265P CXCR4^WHIM): 71% | VGPR (very good partial response) ([7]; MYD88^L265P CXCR4^WHIM): 7% | MR (major response) ([7]; MYD88^L265P CXCR4^WT): 94% | VGPR (very good partial response) ([7]; MYD88^L265P CXCR4^WT): 31% | VGPR ([8]; patients with the MYD88^L265P CXCR4^WT mutations): 44.4% | VGPR ([8]; patients with the double mutations MYD88^L265P CXCR4^WHIM): 9.5%

SMILES: c1cc(CN2CCCNCCNCCCNCC2)ccc1CN1CCCNCCNCCCNCC1 [plerixafor]
maximum fold-increase in WBCs over baseline [10]: 3 fold | fold increase in CD19 B cells [11]: greater than 40 fold
